Key:
[1] = Bioavailability of orally administered FTS formulated in corn oil (plasma FTS by LC/MS); format: in vivo, CD-1 mice; conditions: CD-1, mouse, 40 mg/kg, mice, gavage, corn oil suspension
Method: (§1) FTS (40 mg) was dispersed in corn oil (10 ml). Aliquots of the resulting suspension were administered by gavage to CD-1 mice (eighteen) at a dose of […] (at a volume of 10 ml/kg of FTS suspension calculated for actual animal weight). Blood samples were collected in lithium heparin tubes via the retro-orbital plexus while under CO2/O2 anesthesia at 1, 2, 4, 8, 12 and 24 hours (3 animals at each time point) after dosing. Aliquots (100 μL) of plasma were mixed with water, pH 11 buffer solution and acetonitrile. After centrifugation, the supernatant was evaporated to dryness. The residue was resuspended in water/acetonitrile and centrifuged, and the supernatant was transferred to auto-sampler vials for FTS determination by liquid chromatography/mass spectrometry (LC/MS).
There was a rapid decrease to less than 3 ng/ml after 24 hours.

[2] = Bioavailability of orally administered FTS formulated in 0.5% aqueous carboxymethylcellulose (plasma FTS by LC/MS); format: in vivo, CD-1 mice; conditions: CD-1, mouse, 40 mg/kg, mice, gavage, 0.5% aqueous carboxymethylcellulose suspension
Method: as §1, with “Mg)” for “mg)”, “0.5% aqueous carboxymethylcellulose” for “corn oil”, “12,” for “12”, “solution,” for “solution”, “re-suspended” for “resuspended”, “LC/MS.” for “liquid chromatography/mass spectrometry (LC/MS).”

[3] = test system: Panc-1 cells; assay: Inhibition of pancreatic tumor growth with orally administered FTS (subcutaneous Panc-1 implant); format: in vivo, Nude CD1-Nu Mice; conditions: for average tumor weight: control 1.02 g
Method: Nude CD1-Nu Mice were implanted subcutaneously with 5.0×10^6 Panc-1 cells in 0.2 ml of PBS just above the right femoral joint. Eleven days after implantation, palpable tumors were observed. FTS was dispersed in 0.5% aqueous carboxymethylcellulose at a concentration of 5 mg/ml. On the eleventh day after implantation, mice were segregated into three groups and were given vehicle or FTS suspension by gavage. Group 1 (Controls, 6 mice) received 0.2 ml vehicle daily. Group 2 (20 mg/kg FTS, 7 mice) received 0.1 ml FTS suspension daily. Group 3 (40 mg/kg FTS, 6 mice) received 0.2 ml FTS suspension daily. Mice were treated for ten days, and were sacrificed. Tumors were excised and weighed.

[4] = Compatibility of FTS with pharmaceutical excipients (accelerated stability, HPLC assay); format: physicochemical; conditions: 1:1 w/w mixture with FTS, 40° C./75% RH, loosely capped vials
Method: Physical mixtures (1:1 w/w) of FTS and representative pharmaceutical excipients commonly used in oral formulations were stored at 40° C./75% RH accelerated stress conditions for four weeks in loosely capped vials. Samples were assayed by HPLC at the 0, 2-week and 4-week time points.

[5] = Bioavailability of orally administered FTS to rats (plasma FTS by LC/MS); format: in vivo, Crl:CD(SD) (IGS)BR rats; conditions: oral 200 mg/kg in corn oil (95%) and ethanol (5%)
Method: FTS was dissolved in a mixture of corn oil (95%) and ethanol (5%). Aliquots of the resulting solution were administered to Crl:CD(SD) (IGS)BR rats (twenty-four) at a dose of 200 mg/kg. Blood samples were collected in lithium-heparin-containing tubes via the retro-orbital plexus while under CO2/O2 anesthesia at 1, 2, 4, 8, 12 and 24 hours after dosing. Concentration of FTS at each time point was determined by LC/MS.

[6] = oral, dose 40 mg/ml (10 ml/kg), 1 hour
[7] = oral, dose 40 mg/ml (10 ml/kg), 2 hours
[8] = oral, dose 40 mg/ml (10 ml/kg), 24 hours
[9] = po, read-out: oral bioavailability compared to intra-peritoneal injection
[10] = 20 mg/kg FTS daily by gavage in 0.5% CMC for ten days
[11] = 40 mg/kg FTS daily by gavage in 0.5% CMC for ten days

With CC(C)=CCC/C(C)=C/CC/C(C)=C/CSc1ccccc1C(=O)O [FTS, farnesyl-thiosalicylic acid] as the compound, how does the concentration at 1 h [1, 6] read?
Its concentration at 1 h is 2160 ng/mL.

And the concentration at 2 h [1, 7]?
Its concentration at 2 h is 1330 ng/mL.

What about the concentration at 24 h [1, 8] of the same compound?
Its concentration at 24 h is under 3 ng/mL.

What about the bioavailability [1, 9] of the same compound?
The bioavailability was 55%.

And the concentration at 1 h [2, 6]?
The concentration at 1 h was 3380 ng/mL.

What about the concentration at 2 h [2, 7] of the same compound?
The concentration at 2 h was 1590 ng/mL.

And the concentration at 24 h [2, 8]?
Its concentration at 24 h is under 3 ng/mL.

And the bioavailability [2, 9]?
Its bioavailability is 69%.

And the “tumor weight lower than control” value [3, 10]?
The value was 32%.

And the average tumor weight [3, 10]?
Its average tumor weight is 0.68 g.

What about the “tumor weight lower than control” value [3, 11] of the same compound?
The value was 53%.

What about the average tumor weight [3, 11] of the same compound?
The average tumor weight was 0.47 g.

And the “HPLC assay, 0 weeks” value ([4]; 0 weeks, in % (unit assumed))?
The value was 97.75.

What about the HPLC assay, 2 weeks ([4]; 2 weeks) of the same compound?
The HPLC assay, 2 weeks was 97.1%.

What about the “HPLC assay, 4 weeks” value ([4]; 4 weeks, in % (unit assumed)) of the same compound?
Its value is 97.76.

And the concentration at 1 h ([5]; Crl:CD(SD) (IGS)BR, rat, plasma, 1 hour)?
The concentration at 1 h was 4450 ng/mL.

What about the concentration at 2 h ([5]; Crl:CD(SD) (IGS)BR, rat, plasma, 2 hours) of the same compound?
Its concentration at 2 h is 4550 ng/mL.

And the concentration at 4 h ([5]; Crl:CD(SD) (IGS)BR, rat, plasma, 4 hours)?
Its concentration at 4 h is 3050 ng/mL.

And the concentration at 8 h ([5]; Crl:CD(SD) (IGS)BR, rat, plasma, 8 hours)?
The concentration at 8 h was 2220 ng/mL.

What about the concentration at 12 h ([5]; Crl:CD(SD) (IGS)BR, rat, plasma, 12 hours) of the same compound?
Its concentration at 12 h is 685 ng/mL.

What about the concentration at 24 h ([5]; Crl:CD(SD) (IGS)BR, rat, plasma, 24 hours) of the same compound?
The concentration at 24 h was 140 ng/mL.

What about the “oral bioavailability (in words)” value [5] of the same compound?
Its value is “high level of oral bioavailability”.

Reference: patent US8088756B2, “Methods and compositions for oral delivery of FTS” (Concordia Pharmaceuticals, Inc., priority 2004, dated 2012)
